Data set [1] in a line: Rat intravenous PK of the EtOH / SEQ ID NO:1 formulation without nanoparticles. Particulars: for AUC(0-inf): Sprague-Dawley, rat, rats, intravenous 15 mg/kg, EtOH / 20% SEQ ID NO:1 in saline, without nanoparticles, LCMS. It counts as in vivo, Sprague-Dawley rats. The method, then:
It is understood the concentration may be optimized according to desired dosing schemes, routes of administration, etc.
The PK studies were conducted around the formulation from Example I. Specifically, Sprague-Dawley rats were dosed intravenously at 15 mg/kg, with blood samples being collected prior to dosing, in order to establish baseline, then post dosing at set intervals up to 24 hours. Drug bioanalytical measurements were conducted by LCMS.
Results (AUCinf) reported in the prior art are from blood plasma, whereas the present results are from both plasma and whole blood. This was done to allow for direct comparison to the previous studies. Drug area under the curve versus time ((AUCinf), total drug dose exposure) was calculated accordingly.
Sirolimus (rapamycin) was used and formulated in accordance with those steps described previously at Example I. Specifically, sirolimus was combined with SEQ ID NO:1 but without nanoparticles and tested against the studies shown in the prior art, namely, sirolimus formulated with SEQ ID NO:1 but with nanoparticles.

The conditions of data set [2]: prior art; blood plasma; 15 mg/kg; SEQ ID NO:1 with nanoparticles; cited from earlier work.

On to `CO[C@H]1C[C@@H]2CC[C@@H](C)[C@@](O)(O2)C(=O)C(=O)N2CCCC[C@H]2C(=O)O[C@H]([C@H](C)C[C@@H]2CC[C@@H](O)[C@H](OC)C2)CC(=O)[C@H](C)/C=C(\C)[C@@H](O)[C@@H](OC)C(=O)[C@H](C)C[C@H](C)/C=C/C=C/C=C/1C` [Sirolimus, rapamycin], for which the AUC(0-inf) in data set [1] (plasma) was found to be 5180 ± 130 ng·h/mL; in data set [1] (whole blood), 5060 ± 541 ng·h/mL. Besides, in data set [1] (sirolimus without nanoparticles (current) versus with nanoparticles (prior art)), the “difference between the AUCinf results of the current studies and the prior art” value was 20%. Moreover, the AUCinf in data set [2] is 6017 ± 647 ng·h/mL.

As usually defined, the AUC(0-inf) is total exposure, with the tail of the curve extrapolated. Low readings indicate low exposure, high ones high exposure.
